Tested on: c-Myc
Assay: c-Myc immunofluorescence assay
Type: cell-based, human
Settings: A549 cells, 24 hours treatment, anti-c-Myc immunofluorescence
Summary of the method: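 High-content imaging (20×) of PFA-fixed A549 cells immunostained for c-Myc with DAPI nuclei, after 24 h compound treatment at increasing concentrations. Per-cell c-Myc signal in identified cell regions was plotted against dose and fitted by logistic regression to give EC50.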

Row | SMILES | Myc Efficacy (−LogEC50)
1 | CNC(=O)c1ccc(-c2cn3c(n2)sc2cc(C(=O)NCc4ccccc4)ccc23)cc1 [compound 275, N-benzyl-2-(4-(methylcarbamoyl)phenyl) benzo[d]imidazo[2,1-b]thiazole-7-carboxamide] | − (− ≤3)
2 | CCN(CC)CCCNC(=O)c1ccc2c(c1)sc1nc(-c3ccc(CN(C)C)cc3)cn12 [compound 276, N-(3-(diethylamino)propyl)-2-(4-((dimethylamino)methyl)phenyl)benzo[d]imidazo[2,1-b]thiazole-7-carboxamide] | +++ (+++ ≥6)
3 | CCN(CC)CCCNC(=O)c1ccc2c(c1)sc1nc(-c3ccc(CO)cc3)cn12 [compound 277, N-(3-(diethylamino)propyl)-2-(4-(hydroxymethyl)phenyl) benzo[d]imidazo[2,1-b] thiazole-7-carboxamide] | ++ (++ ≥5 and <6)
4 | CNC(=O)c1ccc(-c2cn3c(n2)sc2cc(C(=O)NCC4(C)CNC4)ccc23)cc1 [compound 278, N-((3-methylazetidin-3-yl)methyl)-2-(4-(methylcarbamoyl)phenyl) benzo[d]imidazo[2,1-b]thiazole-7-carboxamide] | − (− ≤3)
5 | CNC(=O)c1ccc(-c2cn3c(n2)sc2cc(C(=O)NCC4CC5(CC5)CN4)ccc23)cc1 (centres unmarked) [compound 279, N-((5-azaspiro[2.4]heptan-6-yl)methyl)-2-(4-(methylcarbamoyl)phenyl) benzo[d]imidazo[2,1-b]thiazole-7-carboxamide] | − (− ≤3)
6 | CNC(=O)c1ccc(-c2cn3c(n2)sc2cc(C(=O)NC4CC(C)C4)ccc23)cc1 (centres unmarked) [compound 280, 2-(4-(methylcarbamoyl)phenyl)-N-(3-methylcyclobutyl)benzo[d] imidazo[2,1-b]thiazole-7-carboxamide] | ++ (++ ≥5 and <6)
7 | CNC(=O)c1ccc(-c2cn3c(n2)sc2cc(C(=O)NCCCN4CCCCC4)ccc23)c(F)c1 [compound 281, 2-(2-fluoro-4-(methylcarbamoyl)phenyl)-N-(3-(piperidin-1-yl)propyl)benzo[d]imidazo [2,1-b]thiazole-7-carboxamide] | ++ (++ ≥5 and <6)
8 | CCNC(=O)c1ccc(-c2cn3c(n2)sc2cc(C(=O)NCCCN(CC)CC)ccc23)cc1 [compound 282, N-(3-(diethylamino)propyl)-2-(4-(ethylcarbamoyl)phenyl) benzo[d]imidazo[2,1-b]thiazole-7-carboxamide] | + (+ >3 and <5)
9 | CCN(CC)CCCNC(=O)c1ccc2c(c1)sc1nc(-c3ccc(C(=O)NC(C)C)cc3)cn12 [compound 283, N-(3-(diethylamino)propyl)-2-(4-(isopropylcarbamoyl)phenyl) benzo[d]imidazo[2,1-b]thiazole-7-carboxamide] | + (+ >3 and <5)
10 | CCN(CC)CCCNC(=O)c1ccc2c(c1)sc1nc(-c3ccc(C(=O)NCCOC)cc3)cn12 [compound 284, N-(3-(diethylamino)propyl)-2-(4-((2-methoxyethyl)carbamoyl)phenyl)benzo[d]imidazo[2,1-b]thiazole-7-carboxamide] | + (+ >3 and <5)
11 | CCN(CC)CCCNC(=O)c1ccc2c(c1)sc1nc(-c3ccc(C(=O)NCCO)cc3)cn12 [compound 285, N-(3-(diethylamino)propyl)-2-(4-((2-hydroxyethyl)carbamoyl)phenyl)benzo[d]imidazo[2,1-b]thiazole-7-carboxamide] | + (+ >3 and <5)
12 | CCN(CC)CCCNC(=O)c1ccc2c(c1)sc1nc(-c3ccc(C(=O)NC4CCN(C)C4)cc3)cn12 (centres unmarked) [compound 286, N-(3-(diethylamino)propyl)-2-(4-((1-methylpyrrolidin-3-yl)carbamoyl)phenyl)benzo [d]imidazo[2,1-b]thiazole-7-carboxamide] | ++ (++ ≥5 and <6)
13 | CCN(CC)CCCNC(=O)c1ccc2c(c1)sc1nc(-c3ccc(C(=O)NC4CCNCC4)cc3)cn12 [compound 287, N-(3-(diethylamino)propyl)-2-(4-(piperidin-4-ylcarbamoyl)phenyl)benzo [d]imidazo[2,1-b]thiazole-7-carboxamide] | + (+ >3 and <5)
14 | CCN(CC)CCCNC(=O)c1ccc2c(c1)sc1nc(-c3ccc(CNC)cc3)cn12 [compound 288, N-(3-(diethylamino)propyl)-2-(4-((methylamino)methyl)phenyl) benzo[d]imidazo[2,1-b]thiazole-7-carboxamide] | +++ (+++ ≥6)
15 | CCN(CC)CCCNC(=O)c1ccc2c(c1)sc1nc(-c3ccc(CN4CCCC4)cc3)cn12 [compound 289, N-(3-(diethylamino)propyl)-2-(4-(pyrrolidin-1-ylmethyl)phenyl)benzo[d] imidazo[2,1-b]thiazole-7-carboxamide] | +++ (+++ ≥6)
16 | NCc1ccc(-c2cn3c(n2)sc2cc(C(=O)NCCCN4CCCCC4)ccc23)cc1 [compound 290, 2-(4-(aminomethyl)phenyl)-N-(3-(piperidin-1-yl)propyl)benzo[d]imidazo [2,1-b]thiazole-7-carboxamide] | +++ (+++ ≥6)
17 | CCN(CC)CCCNC(=O)c1ccc2c(c1)sc1nc(-c3ccc(C(=O)NC)c(F)c3)cn12 [compound 291] | + (+ >3 and <5)
18 | CCN(CC)CCCNC(=O)c1ccc2c(c1)sc1nc(-c3ccc(CNCCOC)cc3)cn12 [compound 292, N-(3-(diethylamino)propyl)-2-(4-(((2-methoxyethyl)amino)methyl)phenyl)benzo[d]imidazo[2,1-b]thiazole-7-carboxamide] | +++ (+++ ≥6)
19 | CCN(CC)CCCNC(=O)c1ccc2c(c1)sc1nc(-c3ccc([C@@H](NC)C(F)(F)F)cc3)cn12 [compound 293, (R)-N-(3-(diethylamino)propyl)-2-(4-(2,2,2-trifluoro-1-(methylamino)ethyl)phenyl) benzo[d]imidazo[2,1-b]thiazole-7-carboxamide] | ++ (++ ≥5 and <6)
20 | CCN(CC)CCCNC(=O)c1ccc2c(c1)sc1nc(-c3ccc([C@H](NC)C(F)(F)F)cc3)cn12 [compound 294, (S)-N-(3-(diethylamino)propyl)-2-(4-(2,2,2-trifluoro-1-(methylamino)ethyl)phenyl) benzo[d]imidazo[2,1-b]thiazole-7-carboxamide] | ++ (++ ≥5 and <6)
21 | CCN(CC)CCCNC(=O)c1ccc2c(c1)sc1nc(-c3ccc(C(=O)NCCNC)cc3)cn12 [compound 295, N-(3-(diethylamino)propyl)-2-(4-((2-(methylamino)ethyl)carbamoyl)phenyl)benzo[d] imidazo[2,1-b]thiazole-7-carboxamide] | ++ (++ ≥5 and <6)
22 | CCN(CC)CCCNC(=O)c1ccc2c(c1)sc1nc(-c3ccc(C(=O)NC4CCNC4)cc3)cn12 (centres unmarked) [compound 296, N-(3-(diethylamino)propyl)-2-(4-(pyrrolidin-3-ylcarbamoyl)phenyl)benzo[d] imidazo[2,1-b]thiazole-7-carboxamide] | + (+ >3 and <5)
23 | CCN(CC)CCCNC(=O)c1ccc2c(c1)sc1nc(-c3ccc(C(=O)NCCN)cc3)cn12 [compound 297, 2-(4-((2-aminoethyl)carbamoyl)phenyl)-N-(3-(diethylamino)propyl)benzo [d]imidazo[2,1-b]thiazole-7-carboxamide] | + (+ >3 and <5)
